# Experimental data as given in PMC4862498, “PI4 Kinase Is a Prophylactic but Not Radical Curative Target in Plasmodium vivax-Type Malaria Parasites” (Antimicrobial Agents and Chemotherapy, 2016).
# Tests used:
# [1] = set-up: species or system CD-1 mice; conditions: mouse, in vivo
# Method: Details of in vivo PK studies of KDU691 and LMV599 in CD-1 mice and monkeys can be found in the supplemental material.
# Clinical chemistry and hematology
# For the clinical analysis serum from 1 mL of clotted blood was analysed using the Cobas Integra 400 plus fully automated chemistry analyser. The following clinical parameters were determined: Alkaline phosphatase; Alanine Aminotransferase; Albumin: Aspartate aminotransfeasr; Bilirubin; Calcium; Cholesterol; Creatine kinase; Creatinine; C-reactive protein: Iron; Phosphate; Gamma-glutamyl transpeptidase; Glucose; Hemoglobin; Potassium; Lactate dehydrogenase; Sodium; Total protein; Urea Haematological parameters were determined from 1 mL EDTA-blood with a Sysmex XT-2000iV automated system. The following hematological parameters were determined: Basophilic granulocytes; Eosinophilic granulocytes; Erythrocytes; Hematocrit; Leucocytes; Leucocyte differentiation; Lymphocytes; Mean corpusculair hemoglobin; Mean corpusculair hemoglobin concentration; Mean corpusculair volume; Neutrophilic granulocytes; Red cell distribution width; Thrombocytes […]
# For LC/MS/MS analysis, 50 µL of plasma samples were precipitated using 180 µL of acetonitrile:methanol:acetic acid (90:9.8:0.2) containing either related compound or warfarin as internal standard. After vortexing and centrifuging the mixture, the supernatant was removed and 5 µL of sample analyzed. […] In addition, quality control samples with three different concentrations were prepared in respective blank matrix and analyzed together with the unknown samples for validation purposes. Analyte quantitation was performed by LC/MS/MS using optimized conditions for each compound. […]
# B), 3.92 – 4.0 min (85 – 35 % B) and 4.0 – 4.75 min (35 % B), with a flow rate of 1.0 mL/min, and a run time of 4.75 min. […] The most intense MRM transition (420.2/269) was used for quantitation using electrospray ionization in the positive mode. […]
# [2] = test system: P. cynomolgi hypnozoites in primary rhesus hepatocytes; experiment: In vitro liver-stage drug assay with P. cynomolgi, small forms (hypnozoites); type: cell-based, Plasmodium cynomolgi; conditions: compound exposure 6 days, mean of several (9) independent assays, read-out: IC50 against hypnozoites (small forms)
# Method: In vitro infections of primary rhesus hepatocytes with P. cynomolgi sporozoites were performed according to methods described previously by Zeeman et al. ([10]). At day 6 postinfection (p.i.), the assay mixtures were fixed and stained with anti-P. cynomolgi Hsp70 rabbit antiserum and a fluorescein isothiocyanate (FITC)-labeled secondary antibody (goat anti-rabbit). Plates were analyzed with the Operetta high-content imaging system, differentially counting hypnozoites and developing extraerythrocytic forms (EEFs), based on parasite size ([10]).
# In vitro activity against P. cynomolgi liver stages was determined for both compounds. The numbers of small (hypnozoites) and large (developing EEFs) parasites were determined by using Operetta and image analysis of primary rhesus hepatocyte cultures infected with P. cynomolgi sporozoites and exposed to the compound for 6 days ([10]). […] IC50s were determined by using the least-squares nonlinear regression method (Prism) for small and large parasites. Data from several independent experiments were used to calculate the IC50s for the two compounds.
smiles,measurement,setting,value
CNC(=O)c1ccc(-c2cnc3cnc(C(=O)N(C)c4ccc(Cl)cc4)cn23)cc1 [KDU691],"compound partitioning in the liver, Cmax over plasma",[1],1.7 ×
same,"compound partitioning in the liver, exposure over plasma",[1],3.1 ×
same,F (oral bioavailability),"[1]; po, 25 mg/kg",60%
same,IC50,[2],0.18 ± 0.21 µM
